Results as given in paper PMC5225454, “A Comprehensive Evaluation of the Activity and Selectivity Profile of Ligands for RGD-binding Integrins” (Scientific Reports, 2017).
Values joined by “and” are separate entries in the source; they are usually repeats but may differ in a detail not shown here. Equal values may be shown once. Read-outs that look alike come from different tables or passages of the source. Positions of bridges follow the written chain, without caps; N, C: chain ends. Non-standard residues stand in square brackets, D forms with d. Residues, ends and D or L forms follow the SMILES beside them. Groups on a side chain read outwards from the residue. *: point of attachment. X1 = O=C(COCC(=O)*)NCCOCCOCCOCCOCCOCCNC(=O)CO/N=C/c1ccc(F)cc1; X2 = NC(=O)COCC(=O)NCCOCCOCCOCCN*; dPhg = N[C@@H](C(=O)O)c1ccccc1; AEEA = NCCOCCOCC(=O)O; Mpa = O=C(O)CCS

Key:
α5β1 integrin [1] = biological target: T1, α5β1 integrin (Homo sapiens, UniProt P05556+P08648); test: ELISA-like solid-phase binding assay, soluble integrin α5β1 vs coated fibronectin; design: purchased R&D
human αvβ5-integrin = biological target: T2, human αvβ5-integrin (Homo sapiens, UniProt P06756+P18084); test: ELISA-like solid-phase binding assay, soluble integrin αvβ5 vs coated vitronectin; settings: referenced to internal standard
T2 construct: purchased Millipore

human αvβ3-integrin = biological target: T3, human αvβ3-integrin (Homo sapiens, UniProt P05106+P06756); test: ELISA-like solid-phase binding assay, soluble integrin αvβ3 vs coated vitronectin; settings: for IC50: coated vitronectin, soluble integrin, referenced to internal standard
T3 construct: purchased R&D

human αvβ6-Integrin = biological target: T4, human αvβ6-Integrin (Homo sapiens, UniProt P06756+P18564); test: ELISA-like solid-phase binding assay, soluble integrin αvβ6 vs coated LAP (TGF-β); settings: for IC50: coated LAP, soluble integrin, referenced to internal standard
T4 construct: purchased R&D

[2] = biological target: T5, human platelet integrin αIIbβ3 (Homo sapiens, UniProt P05106+P08514); test: ELISA-like solid-phase binding assay, soluble integrin αIIbβ3 vs coated fibrinogen; settings: referenced to internal standard
T5 construct: purchased VWR

human αvβ8-Integrin = biological target: T6, human αvβ8-Integrin (Homo sapiens, UniProt P06756+P26012); test: ELISA-like solid-phase binding assay, soluble integrin αvβ8 vs coated LAP (TGF-β); settings: referenced to internal standard
T6 construct: purchased R&D

[3] = cited from earlier work
α5β1 integrin [4] = biological target: T1, α5β1 integrin; test: Solid phase binding assay with surface-coated integrin and soluble fibronectin; settings: incubation with fibronectin, unpublished data
Experimental: Tests carried out in cell-free systems, use isolated extracellular domains of integrins in conjunction with ECM proteins, either extracted from human tissue or produced by recombinant methods. Most of these tests are based on competitive solid phase binding assays, in which one component is bound to the multi-well plate and in a subsequent step, soluble ligands are added, testing their capacity to block the binding to that component. Mainly two procedures are described in the literature, differing in the molecule used to coat the surfaces: the isolated integrin extracellular domains or the ECM protein. In the first case, the integrin is coated on the surface, followed by an incubation with a mixture of the native ECM protein and increasing concentrations of the ligand of interest. In an alternative test system, the natural ECM protein (vitronectin for αvβ3 and αvβ5, LAP (TGFβ) for αvβ6 and αvβ8, fibronectin for α5β1 and fibrinogen for αIIbβ3) is immobilized onto the surface, and the soluble integrin, together with a serial dilution of the inhibitory ligand, is added afterwards. The read-out in both procedures is usually done in an ELISA-like manner by using conjugated antibodies recognizing the integrin head groups. […] For a detailed description of the reference to the SI. […]

[5] = coated fibronectin, soluble integrin, referenced to internal standard, read-out: IC50 α5β1

T6 sequence (P06756 31-992 limits assumed): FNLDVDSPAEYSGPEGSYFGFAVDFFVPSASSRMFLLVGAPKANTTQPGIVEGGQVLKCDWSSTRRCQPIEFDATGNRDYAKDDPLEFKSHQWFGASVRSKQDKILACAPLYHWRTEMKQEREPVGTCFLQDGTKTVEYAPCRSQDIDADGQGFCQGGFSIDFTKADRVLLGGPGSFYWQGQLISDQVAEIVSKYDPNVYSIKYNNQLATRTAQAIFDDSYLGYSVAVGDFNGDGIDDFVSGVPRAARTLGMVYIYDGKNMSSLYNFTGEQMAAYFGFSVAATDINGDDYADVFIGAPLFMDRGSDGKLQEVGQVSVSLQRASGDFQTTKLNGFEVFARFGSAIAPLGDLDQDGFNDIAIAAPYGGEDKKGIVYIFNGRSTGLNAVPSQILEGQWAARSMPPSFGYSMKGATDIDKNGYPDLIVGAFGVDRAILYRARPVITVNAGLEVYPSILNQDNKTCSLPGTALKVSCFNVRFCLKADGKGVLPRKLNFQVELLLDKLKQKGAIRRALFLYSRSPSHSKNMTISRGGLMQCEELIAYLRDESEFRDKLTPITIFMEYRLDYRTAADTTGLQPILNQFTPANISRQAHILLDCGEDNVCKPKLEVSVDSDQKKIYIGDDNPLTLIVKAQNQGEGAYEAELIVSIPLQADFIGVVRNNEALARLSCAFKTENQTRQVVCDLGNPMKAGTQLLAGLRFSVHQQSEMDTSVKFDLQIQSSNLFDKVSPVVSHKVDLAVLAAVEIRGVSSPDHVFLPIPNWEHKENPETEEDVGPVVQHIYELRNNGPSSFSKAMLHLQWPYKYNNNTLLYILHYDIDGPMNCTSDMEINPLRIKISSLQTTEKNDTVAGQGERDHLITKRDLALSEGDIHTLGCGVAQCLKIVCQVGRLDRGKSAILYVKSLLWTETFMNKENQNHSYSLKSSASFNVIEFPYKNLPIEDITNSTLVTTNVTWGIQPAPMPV
T6 sequence (P26012 43-684 limits assumed): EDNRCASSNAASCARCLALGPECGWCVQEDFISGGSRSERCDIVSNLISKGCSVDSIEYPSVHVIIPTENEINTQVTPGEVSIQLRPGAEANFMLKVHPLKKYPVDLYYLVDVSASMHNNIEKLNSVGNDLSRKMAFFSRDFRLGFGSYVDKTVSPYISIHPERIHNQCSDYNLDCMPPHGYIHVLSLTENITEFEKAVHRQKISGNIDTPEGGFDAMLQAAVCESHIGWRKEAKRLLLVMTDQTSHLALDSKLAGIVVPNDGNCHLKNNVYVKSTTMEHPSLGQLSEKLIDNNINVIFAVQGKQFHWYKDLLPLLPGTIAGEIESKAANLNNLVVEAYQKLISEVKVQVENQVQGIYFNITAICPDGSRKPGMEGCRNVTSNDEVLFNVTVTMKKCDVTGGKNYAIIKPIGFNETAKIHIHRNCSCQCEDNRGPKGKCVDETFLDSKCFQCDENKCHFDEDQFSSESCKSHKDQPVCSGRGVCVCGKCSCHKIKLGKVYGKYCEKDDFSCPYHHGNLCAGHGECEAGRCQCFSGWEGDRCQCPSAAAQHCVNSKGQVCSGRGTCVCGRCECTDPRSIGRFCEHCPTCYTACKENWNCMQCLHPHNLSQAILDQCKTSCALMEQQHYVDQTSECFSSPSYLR
T4 sequence (P06756 31-992 limits assumed): as the sequence (P06756 31-992 limits assumed) above
T4 sequence (P18564 22-707 limits assumed): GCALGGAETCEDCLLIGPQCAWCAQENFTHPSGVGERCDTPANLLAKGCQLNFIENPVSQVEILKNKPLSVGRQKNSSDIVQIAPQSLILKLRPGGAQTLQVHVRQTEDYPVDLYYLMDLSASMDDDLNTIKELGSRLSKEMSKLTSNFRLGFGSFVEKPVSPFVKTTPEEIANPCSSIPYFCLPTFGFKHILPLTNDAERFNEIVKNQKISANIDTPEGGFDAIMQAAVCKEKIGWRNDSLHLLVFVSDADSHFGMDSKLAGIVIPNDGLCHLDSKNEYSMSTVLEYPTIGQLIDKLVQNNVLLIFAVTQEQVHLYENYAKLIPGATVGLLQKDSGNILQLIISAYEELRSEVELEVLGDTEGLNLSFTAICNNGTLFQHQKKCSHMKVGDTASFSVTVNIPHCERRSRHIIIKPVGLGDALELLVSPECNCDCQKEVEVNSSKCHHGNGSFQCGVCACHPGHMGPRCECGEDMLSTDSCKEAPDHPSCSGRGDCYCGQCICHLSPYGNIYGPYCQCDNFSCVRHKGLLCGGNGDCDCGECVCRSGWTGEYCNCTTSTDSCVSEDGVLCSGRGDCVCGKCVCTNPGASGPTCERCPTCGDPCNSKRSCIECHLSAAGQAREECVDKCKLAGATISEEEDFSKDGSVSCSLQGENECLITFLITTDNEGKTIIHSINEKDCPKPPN
T3 sequence (P06756 31-992 limits assumed): as the sequence (P06756 31-992 limits assumed) above
T3 sequence (P05106 27-718 limits assumed): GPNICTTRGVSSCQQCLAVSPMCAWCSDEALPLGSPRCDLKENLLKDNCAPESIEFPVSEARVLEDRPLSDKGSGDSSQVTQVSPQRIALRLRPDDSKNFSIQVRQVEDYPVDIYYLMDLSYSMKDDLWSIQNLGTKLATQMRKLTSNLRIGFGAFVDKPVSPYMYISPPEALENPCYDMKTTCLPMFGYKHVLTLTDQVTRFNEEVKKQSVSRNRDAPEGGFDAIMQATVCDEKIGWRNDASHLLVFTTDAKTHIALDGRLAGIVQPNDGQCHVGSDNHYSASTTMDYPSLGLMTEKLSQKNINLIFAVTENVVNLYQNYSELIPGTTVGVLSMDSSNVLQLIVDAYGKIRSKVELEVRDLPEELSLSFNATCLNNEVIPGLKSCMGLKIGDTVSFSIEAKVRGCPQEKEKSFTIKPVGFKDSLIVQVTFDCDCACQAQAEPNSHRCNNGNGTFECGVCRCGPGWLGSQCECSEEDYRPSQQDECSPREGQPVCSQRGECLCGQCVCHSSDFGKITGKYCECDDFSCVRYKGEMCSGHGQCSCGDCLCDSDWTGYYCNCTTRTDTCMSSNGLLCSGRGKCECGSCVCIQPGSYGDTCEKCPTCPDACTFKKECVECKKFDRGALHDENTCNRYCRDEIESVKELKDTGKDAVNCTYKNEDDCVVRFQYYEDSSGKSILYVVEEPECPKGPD
T2 sequence (P06756 31-1048): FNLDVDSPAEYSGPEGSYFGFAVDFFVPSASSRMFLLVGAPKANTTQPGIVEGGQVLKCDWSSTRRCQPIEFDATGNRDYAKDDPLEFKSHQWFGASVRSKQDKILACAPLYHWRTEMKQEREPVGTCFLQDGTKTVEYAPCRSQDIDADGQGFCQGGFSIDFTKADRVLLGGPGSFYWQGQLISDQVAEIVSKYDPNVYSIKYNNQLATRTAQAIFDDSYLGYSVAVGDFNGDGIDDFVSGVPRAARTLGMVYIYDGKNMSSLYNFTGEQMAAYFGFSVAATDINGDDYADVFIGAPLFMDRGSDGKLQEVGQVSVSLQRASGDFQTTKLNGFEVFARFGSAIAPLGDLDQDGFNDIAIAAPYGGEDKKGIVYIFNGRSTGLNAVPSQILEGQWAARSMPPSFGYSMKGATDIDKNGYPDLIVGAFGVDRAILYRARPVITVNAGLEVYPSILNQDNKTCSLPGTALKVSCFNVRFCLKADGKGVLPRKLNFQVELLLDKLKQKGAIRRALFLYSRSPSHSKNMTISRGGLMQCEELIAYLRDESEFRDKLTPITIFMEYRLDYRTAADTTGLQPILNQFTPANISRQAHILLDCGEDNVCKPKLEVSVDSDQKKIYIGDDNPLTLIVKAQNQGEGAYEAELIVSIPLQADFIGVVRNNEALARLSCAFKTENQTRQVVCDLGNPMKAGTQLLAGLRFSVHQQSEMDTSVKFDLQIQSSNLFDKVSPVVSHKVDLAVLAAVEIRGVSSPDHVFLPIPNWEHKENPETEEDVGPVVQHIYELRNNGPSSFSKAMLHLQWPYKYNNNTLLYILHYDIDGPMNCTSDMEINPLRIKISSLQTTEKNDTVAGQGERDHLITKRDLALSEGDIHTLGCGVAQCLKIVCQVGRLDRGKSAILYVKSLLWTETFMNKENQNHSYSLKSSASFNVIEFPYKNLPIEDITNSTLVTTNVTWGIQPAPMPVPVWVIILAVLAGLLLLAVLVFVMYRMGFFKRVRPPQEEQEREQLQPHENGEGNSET
T2 sequence (P18084 24-799): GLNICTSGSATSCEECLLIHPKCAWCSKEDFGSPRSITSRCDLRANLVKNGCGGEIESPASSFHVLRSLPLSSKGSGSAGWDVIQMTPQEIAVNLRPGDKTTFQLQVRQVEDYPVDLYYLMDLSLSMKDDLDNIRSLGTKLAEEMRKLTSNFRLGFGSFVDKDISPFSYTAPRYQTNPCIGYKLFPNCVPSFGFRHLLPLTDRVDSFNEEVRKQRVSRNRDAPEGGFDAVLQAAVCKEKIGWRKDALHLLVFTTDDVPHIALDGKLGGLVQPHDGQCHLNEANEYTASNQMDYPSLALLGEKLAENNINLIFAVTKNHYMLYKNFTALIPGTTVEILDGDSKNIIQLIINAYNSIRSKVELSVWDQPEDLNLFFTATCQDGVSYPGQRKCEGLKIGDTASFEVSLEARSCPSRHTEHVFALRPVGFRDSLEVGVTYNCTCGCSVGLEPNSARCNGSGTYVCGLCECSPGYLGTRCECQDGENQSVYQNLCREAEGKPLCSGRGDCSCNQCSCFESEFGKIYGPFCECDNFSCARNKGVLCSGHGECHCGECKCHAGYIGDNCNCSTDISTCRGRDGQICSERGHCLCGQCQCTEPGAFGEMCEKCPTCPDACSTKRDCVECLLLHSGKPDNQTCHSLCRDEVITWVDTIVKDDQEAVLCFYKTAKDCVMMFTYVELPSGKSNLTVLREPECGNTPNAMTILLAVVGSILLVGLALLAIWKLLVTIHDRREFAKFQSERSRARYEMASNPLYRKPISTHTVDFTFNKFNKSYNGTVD

| Compound | IC50 (α5β1 integrin [1]; [5]) [nM] | IC50 (human αvβ5-integrin) [nM] | IC50 (human αvβ3-integrin) [nM] | IC50 (human αvβ6-Integrin) | IC50 [2] [nM] | IC50 (human αvβ8-Integrin) [nM] | other results |
| --- | --- | --- | --- | --- | --- | --- | --- |
| N=C(N)c1ccc(N2CCN(C3CCN(CC(=O)O)CC3)CC2)cc1 [GR144053, 4-[4-[4-(aminoiminomethyl)phenyl]-1-piperazinyl]-1-piperidineacetic acid] | > 10000 | > 10000 | > 10000 | > 10000 nM | 18 ± 2.2 | > 10000 | – |
| CCCCS(=O)(=O)N[C@@H](Cc1ccc(OCCCCC2CCNCC2)cc1)C(=O)O [Tirofiban] | > 10000 | > 10000 | > 10000 | > 10000 nM | – | > 10000 | – |
| N=C(N)NCCC[C@@H]1NC(=O)CNC(=O)C[C@@H](C(=O)O)NC(=O)[C@@H](c2ccccc2)NC(=O)[C@@H](CCCCN)NC1=O [c(phgisoDGRk)] (GR[dK][dPhg]D-OH; lactam N-5) | 9.43 ± 1.33 | > 10000 | > 10000 | 18 ± 2.5 nM | > 10000 | 77 ± 6 | – |
| N=C(N)NCCC[C@@H]1NC(=O)[C@H](CS)NC(=O)[C@@H](Cc2ccccc2)NC(=O)[C@H](CC(=O)O)NC(=O)CNC1=O [c(RGDfC)] (cyclo(RGD[dF]C)) | 215 ± 55 | 433 ± 23 | 6.3 ± 0.5 | 121 ± 10 nM | > 10000 | > 10000 | – |
| N=C(N)NCCC[C@@H]1NC(=O)[C@@H]2CSSC[C@H](NC(=O)[C@H](CC(=O)O)NC(=O)CNC1=O)C(=O)N[C@@H](Cc1ccccc1)C(=O)N[C@H](C(=O)NCCOCCOCCOCCNC(=O)COCC(N)=O)CSCC(=O)N[C@@H](CCCCNC(=O)COCC(=O)NCCOCCOCCOCCOCCOCCNC(=O)CO/N=C/c1ccc(F)cc1)C(=O)N2 [Flucilatide] ({CH2CO}-K(X1)CRGDCFC-X2; disulfide 2-6; thioether N-8; N-terminus and C-terminus assumed) | – | – | – | – | – | – | fold change of αvβ3 IC50-value after functionalization (human αvβ3-integrin; versus targeting unit NC100717): 3 fold |
| NC(N)=NCCC[C@H](N)C(=O)NCC(=O)N[C@@H](CC(=O)O)C(=O)N[C@@H](CO)C(=O)O [RGDS] | 181 ± 23 | 433 ± 34 | 45 ± 5 | > 10000 nM | – | > 10000 | – |
| N=C(N)NCCC[C@@H]1NC(=O)[C@H](CCCCN)NC(=O)[C@@H](Cc2ccc(O)cc2)NC(=O)[C@H](CC(=O)O)NC(=O)CNC1=O [c(RGDyK)] | 236 ± 45 | – | – | – | – | > 10000 | – |
| CC(C)[C@H]1C(=O)N[C@@H](CCCNC(=N)N)C(=O)NCC(=O)N[C@@H](CC(=O)O)C(=O)N[C@H](Cc2ccccc2)C(=O)N1C [Cilengitide, c(RGDf(NMe)V)] | – | – | – | – | – | – | half-life in man [3]: about four; systemic metabolism ([3]; man): not metabolized systemically; antagonistic activity towards coated α5β1 (α5β1 integrin [4]): low antagonistic activities |
| N=C(N)NCCC[C@H](N)C(=O)NCC(=O)N[C@@H](CC(=O)O)C(=O)O [RGD] | – | 440 ± 65 | 89 ± 12 | > 10000 nM | > 10000 | > 10000 | – |
| N=C(N)NCCC[C@@H]1NC(=O)[C@@H]2CSSC[C@H](NC(=O)[C@H](CC(=O)O)NC(=O)CNC1=O)C(=O)N[C@@H](Cc1ccccc1)C(=O)N[C@H](C(=O)NCCOCCOCCOCCNC(=O)COCC(N)=O)CSCC(=O)N[C@@H](CCCCN)C(=O)N2 [NC100717] ({CH2CO}-KCRGDCFC-X2; disulfide 2-6; thioether N-8; N-terminus and C-terminus assumed) | 820 ± 156 | 16.7 ± 2.1 | 1.1 ± 0.1 | > 10000 nM | > 10000 | > 10000 | – |
| C[C@@H](O)[C@H](NC(=O)[C@H](CC(=O)O)NC(=O)CNC(=O)[C@H](CCCNC(=N)N)NC(=O)CN)C(=O)N1CCC[C@H]1C(=O)O [GRGDTP] (H-GRGDTP-OH) | 84 ± 12 | 423 ± 65 | 28 ± 5 | > 10000 nM | > 10000 | > 10000 | – |
| N=C(N)NCCC[C@@H]1NC(=O)[C@H](CCCCN)NC(=O)[C@@H](Cc2ccccc2)NC(=O)[C@H](CC(=O)O)NC(=O)CNC1=O [c(RGDfK)] | 141 ± 15 | 340 ± 24 | – | – | > 10000 | 5200 ± 670 | – |
| NCCCC[C@H](NC(=O)[C@@H]1CCCN1C(=O)[C@H](CO)NC(=O)[C@H](CC(=O)O)NC(=O)CNC(=O)[C@H](CCCN=C(N)N)NC(=O)CN)C(=O)O [GRGDSPK] | 66 ± 6 | 201 ± 32 | 12.2 ± 0.1 | 1030 ± 242 nM | > 10000 | > 10000 | – |
| N=C(N)NCCC[C@H](NC(=O)CN)C(=O)NCC(=O)N[C@@H](CC(=O)O)C(=O)N[C@@H](CC(N)=O)C(=O)N1CCC[C@H]1C(=O)O [GRGDNP] (H-GRGDNP-OH) | 34 ± 3 | 506 ± 120 | 45 ± 12 | > 10000 nM | > 10000 | > 10000 | – |
| N=C(N)NCCC[C@H](NC(=O)CN)C(=O)NCC(=O)N[C@@H](CC(=O)O)C(=O)O [GRGD] (H-GRGD-OH) | 137 ± 14 | 580 ± 23 | 55 ± 7 | > 10000 nM | > 10000 | > 10000 | – |
| N=C(N)NCCC[C@@H]1NC(=O)[C@H](CCCCNC(=O)CCOCCOCCOCCOCCOCCOCCNC(=O)CCS)NC(=O)[C@@H](Cc2ccccc2)NC(=O)[C@H](CC(=O)O)NC(=O)CNC1=O [c(RGDfK)-Peg-MPA] | 201 ± 31 | 390 ± 53 | 15 ± 1.8 | 422 ± 44 nM | > 10000 | > 10000 | – |
| C[C@H](N)C(=O)N[C@H]1CSSC[C@@H](C(=O)NCC(=O)O)NC(=O)[C@H](Cc2ccccc2)NC(=O)[C@@H]2CSSC[C@H](NC(=O)[C@H](CC(=O)O)NC1=O)C(=O)N[C@@H](CCCNC(=N)N)C(=O)NCC(=O)N[C@@H](CC(=O)O)C(=O)N2 [RGD-4C] (H-ACDCRGDCFCG-OH; disulfide 2-10, 4-8) | 244 ± 37 | 46 ± 11 | 8.3 ± 2.1 | 380 ± 44 nM | > 10000 | > 10000 | IC50 αIIbβ3 [2]: no affinity; IC50 αvβ8 (human αvβ8-Integrin): no affinity |
| CC(C)C[C@H](NC(=O)[C@H](CO)NC(=O)[C@H](CC(=O)O)NC(=O)[C@H](CC(C)C)NC(=O)[C@H](CC(=O)O)NC(=O)[C@@H](NC(=O)[C@@H](N)CCCNC(=N)N)[C@@H](C)O)C(=O)N[C@@H](CCCNC(=N)N)C(=O)N[C@H](C(=O)O)[C@@H](C)O | > 10000 | > 10000 | 6230 ± 540 | – | > 10000 | 320 ± 25 | – |
| CC(=O)N1CCC[C@H]1C(=O)N[C@@H](Cc1c[nH]cn1)C(=O)N[C@@H](CO)C(=O)N[C@@H](CS)C(=O)N[C@@H](CC(N)=O)C(N)=O [ATN161, Ac-PHSCN-NH2] (Ac-PHSCN-NH2) | 4.2 ± 0.5 | > 10000 | > 10000 | 3130 ± 591 nM | > 10000 | > 10000 | – |
| N=C(N)NCCC[C@@H]1NC(=O)CNC(=O)C[C@@H](C(=O)O)NC(=O)[C@@H](c2ccccc2)NC(=O)[C@@H](CCCCNC(=O)COCCOCCNC(=O)CCS)NC1=O [c(phgisoDGRk)-Peg-MPA] (GR[dK]([AEEA-Mpa])[dPhg]D-OH; lactam N-5) | 31 ± 3.4 | > 10000 | > 10000 | 52 ± 4.8 nM | > 10000 | > 10000 | fold change of α5β1 IC50-value after functionalization (α5β1 integrin [1]; versus c(phgisoDGRk)): 2 fold; fold change of αvβ6 IC50-value after functionalization (human αvβ6-Integrin; versus c(phgisoDGRk)): 2 fold |
| CC(C)C[C@H](NC(=O)[C@H](CC(=O)O)NC(=O)CNC(=O)[C@H](CCCNC(=N)N)NC(=O)[C@H](CC(C)C)NC(=O)[C@H](CC(N)=O)NC(=O)[C@@H]1CCCN1C(=O)[C@@H](NC(=O)[C@H](C)NC(=O)[C@@H](N)CC(N)=O)C(C)C)C(=O)N[C@@H](CCC(N)=O)C(=O)N[C@H](C(=O)N[C@@H](CC(C)C)C(=O)N[C@@H](C)C(=O)N[C@@H](CCC(N)=O)C(=O)N[C@@H](CCCCN)C(=O)N[C@H](C(=O)N[C@@H](C)C(=O)N[C@@H](CCCNC(=N)N)C(=O)N[C@H](C(=O)O)[C@@H](C)O)C(C)C)C(C)C [A20FMDV2] | – | – | – | – | – | – | IC50 (α5β1 integrin [1]): > 10000 nM |
| N=C(N)NCCC[C@H](NC(=O)CN)C(=O)NCC(=O)N[C@@H](CC(=O)O)C(=O)N[C@@H](CO)C(=O)O [GRGDS] | 77 ± 8 | – | – | – | – | – | – |
| Cc1ccnc(NCCCC(=O)NCC(=O)NC(CC(=O)O)c2ccc(-c3cccc4ccccc34)cc2)c1 (centres unmarked) [Mol11*] | 3020 ± 410 | 530 ± 49 | 13.2 ± 0.5 | 1.3 nM and 1.32 nM | > 10000 | 18.5 ± 4.3 | – |
| Echistatin | 0.57 ± 0.19 | 1.4 ± 0.2 | 0.46 ± 0.14 | – | 0.9 ± 0.24 | 12.8 ± 2.5 | – |
